“Also recorded” adds a separate entry of the source.
Assays:
[1] = tested on: NMDAR; experiment: Simultaneous NMDA- and AMPA-eEPSCs at −40 mV, patch-clamp, hippocampal slices; assay type: cell-based, mouse; conditions: for Effect on clioquinol-dependent increase in NMDA/AMPA ratio at −40 mV: WT and KO
Method: (§1) For electrophysiological experiments, sagittal hippocampal slices (400 uM thick for extracellular, 300 uM thick for intracellular recordings) of Shank2^−/− mice (or ZnT3^−/− mice) and their wild-type littermates were prepared using a vibratome (Leica VT1200) in ice-cold dissection buffer containing (in mM) 212 sucrose, 25 NaHCO3, 5 KCl, 1.25 NaH2PO4, 0.5 CaCl2, 3.5 MgSO4, 10 D-glucose, 1.25 L-ascorbic acid, and 2 Na-pyruvate bubbled with 95% 02/5% CO2. CA3 was removed to prevent epileptiform activity. Slices were restored for 1 hour in 32° C. in a normal artificial CSF (ACSF) (In units of mM: 124 NaCl, 2.5 kCl, 1 NaH2PO4, 25 NaHCO3, 10 glucose, 2 CaC12, 2 Mg504 oxidized by 95% 02/5% CO2) For the recording, a single slice was moved to and maintained in submerged-type chamber at 28° C., continuously perfused with ACSF (2 mL/minute) saturated with 95% 02/5% CO2. Stimulation and recording pipettes were pulled from borosilicate glass capillaries (Harvard Apparatus) using a micropipette electrode puller (Narishege).
Whole-cell patch-clamp recordings of hippocampal CA1 pyramidal neurons were also made using a MultiClamp 700B amplifier (Molecular Devices) and Digidata 1440A (Molecular Devices). During whole-cell patch-clamp recordings, series resistance was monitored each sweep by measuring the peak amplitude of the capacitance currents in response to short hyperpolarizing step pulse (5 mV, 40 ms); only cells with a change in <25% were included in the analysis. For NMDA (N-Methyl-D-aspartate)/AMPA (alpha-amino-3-hydroxy-5-methylisoxazole-4-propionic acid) ratio experiments, mouse hippocampal slices at the age of postnatal day 17 to 25 were used. The recording pipettes (2.5 to 3.5 MΩ) were filled with an internal solution containing the following (in mM): 100 CsMeSO4, 10 TEA-Cl, 8 NaCl, 10 HEPES, 5 QX-314-C1, 2 Mg-ATP, 0.3 Na-GTP, 10 EGTA, with pH 7.25, 295 mOsm). CA1 pyramidal neurons were voltage-clamped at −70 mV, and EPSPs were evoked at every 15 sec. AMPAR-mediatedEPSCs were recorded at −70 mV, and 30 consecutive responses were recorded after stable baseline. After recording AMPAR-mediated EPSPs, holding potential was changed to +40 mV to record NMDA receptor-mediated EPSPs. NMDA component was measured at 60 ms after the stimulation. The NMDA/AMPA ratio was determined by dividing the mean value of 30 NMDA components of EPSPs by the mean value of 30 AMPAR-mediated EPSC peak amplitudes. […] For measuring AMPAR-mediated and NMDAR-mediated EPSCs together upon CQ treatment, pyramidal neurons were voltage-clamped at −40 mV, and EPSCs were evoked at every 15 sec. AMPAR-mediated EPSC was determined as a peak amplitude of EPSC, and NMDAR-mediated EPSC as a component at 60 ms after stimulation. NMDA/AMPA ratio at −40 mV was calculated by using both values, and monitored during the experimental process. […] Picrotoxin (100 uM) was always added to ACSF to block GABAA receptor-mediated currents.

[2] = tested on: NMDAR; experiment: NMDA-fEPSP extracellular recordings, hippocampal slices; assay type: cell-based, mouse; conditions: for Effect on clioquinol-dependent increase in NMDAR activity (NMDA-fEPSPs): applied to hippocampal slices before clioquinol treatment
Method: as §1
For extracellular recordings, mouse hippocampal slices at the age of postnatal day 21 to 35 were used. Field excitatory postsynaptic potentials (fEPSPs) were recorded in the stratum radiatum of the hippocampal CA1 region using pipettes filled with ACSF (1 MΩ). fEPSP was amplified (Multiclamp 700B, Molecular Devices), and digitized (Digidata 1440A, Molecular
Devices) for measurements. The Schaffer collateral pathway was stimulated every 20 seconds with pipettes filled with ACSF (0.3 to 0.5 MΩ). The stimulation intensity was adjusted to yield a half-maximal response, and three successive responses were averaged and expressed relative to the normalized baseline. To induce LTP, high frequency stimulation (100 Hz, 1 s) was applied after a stable baseline was acquired. […] To isolate NMDAR-mediated fEPSPs, ACSF containing 2 mM calcium, 0.1 mM magnesium, and 6,7-dinitroquinoxaline-2,3-dione (10 uM, DNQX, Tocris), which inhibits AMPAR-mediated EPSPs, were used.

[3] = tested on: Tbr1^+/− mice; conditions: reported by Huang et al. 2014; cited from earlier work

Compound: NC(CCCP(=O)(O)O)C(=O)O (stereo not drawn) [AP5]
- NMDA-eEPSCs at −40 mV ([1]; D-AP5 50 uM, 10 minutes, after CQ): significantly reduced

Compound: O=C([O-])CN(CCN(CC(=O)[O-])CC(=O)[O-])CC(=O)[O-].[Ca+2].[Na+].[Na+] [Ca-EDTA]
- NMDAR function (NMDA-fEPSPs), substance alone ([2]; Ca-EDTA 2 mM, during and after the treatment, WT and KO): did not affect NMDA-fEPSP; also recorded: has no effect on NMDAR function
- Effect on clioquinol-dependent increase in NMDAR activity (NMDA-fEPSPs) [2]: eliminated the clioquinol-dependent increase in NMDAR activity

Compound: N[C@@H]1CONC1=O [D-cycloserine]
- Reduction in social interaction [3]: normalized

Compound: CC(C)(C)n1nc(-c2ccc(Cl)cc2)c2c(N)ncnc21 [PP2]
- Effect on clioquinol-dependent increase in NMDAR activity (NMDA-fEPSPs) [2]: removed clioquinol activation of NMDAR

Compound: Nc1ncnc2c1cnn2-c1ccccc1 [PP3]
- Effect on clioquinol-dependent increase in NMDAR activity (NMDA-fEPSPs) [2]: failed to block the NMDAR activation

Compound: CN(C)S(=O)(=O)c1ccc2c(c1)/C(=C/c1cc3c([nH]1)CCCC3)C(=O)N2 [SU6656]
- Effect on clioquinol-dependent increase in NMDAR activity (NMDA-fEPSPs) [2]: removed clioquinol activation of NMDAR

Compound: O=C(NN=C1CCCCC1)C(=O)NN=C1CCCCC1 [cuprizone]
- Effect on clioquinol-dependent increase in NMDAR activity (NMDA-fEPSPs) [2]: did not inhibit the clioquinol-induced increase in NMDAR activity

Compound: Src (40-58): Src-inhibitory peptide with a sequence corresponding to Src amino acid residues 40-58 (KPASADGHRGPSAAFAPAA; UniProt P12931 40-58, looked up, fragment)
- Effect on clioquinol-dependent increase in NMDAR activity (NMDA-eEPSCs) ([1]; peptide in the patch pipette, 0.03 mg/mL, Shank2^−/− and wild-type synapses): prevented clioquinol from increasing NMDAR activity
- Effect on clioquinol-dependent increase in NMDA/AMPA ratio at −40 mV ([1]; peptide in the patch pipette, 0.03 mg/mL): blocks CQ-dependent NMDAR activation
- Effect on clioquinol-dependent increase in NMDA/AMPA ratio at −40 mV ([1]; peptide in the patch pipette, 0.03 mg/mL, listed as Src-inhibitory peptide): blocked
- AMPAR function (AMPA-eEPSCs) ([1]; peptide in the patch pipette, wild-type and Shank2^−/− synapses): unaffected
